Source: patent US5583224A, “Isolation and elucidation of cephalostatin 7, 8 and 9” (Arizona Board of Regents acting on behalf of Arizona State …, priority 1993, dated 1996)

What was measured:
[1] = tested on: panel of 60 human tumor cell lines; assay: NCI standard human tumor cell line panel (60 cell lines); type: cell-based; conditions: for activity against human cancer cell lines: panel of human cancer cell lines employed by NCI
Description: Current research in the control of cancer in the United States is coordinated by the National Cancer Institute (NCI). To determine whether a substance has anti-cancer properties, the NCI has established a systematic protocol. […] The protocol, and the established statistical means for analyzing the results obtained by the standardized testing are fully described in the literature. See: Boyd, Dr. Michael R., Principles & Practice of Oncology, PPO Updates, Volume 3, Number 10, Oct. 1989, for an in depth description of the testing protocol; and Paull, K. D., "Display and Analysis of Patterns of Differential Activity of Drugs Against Human Tumor Cell Lines; Development of Mean Graph and COMPARE Algorithm", Journal of the National Cancer Institute Reports, Vol. 81, No. 14, Page 1088, Jul. 14, 1989 for a description of the methods of statistical analysis. Both of these references are incorporated herein by this reference thereto.

[2] = tested on: P388 lymphocytic leukemia cell line; assay: P388 lymphocytic leukemia (PS) cell line growth inhibition in vitro; type: cell-based, murine
[3] = tested on: P388 lymphocytic leukemia cell line; conditions: first chemical study, Pettit et al., J. Am. Chem. Soc 1988; cited from earlier work

| SMILES | activity against other NCI cell lines ([1]; other NCI cell lines) | activity against human cancer cell lines [1] | activity against human cancer cell lines ([1]; listed as cephalostatin 9) | activity against murine P388 lymphocytic leukemia (PS system) [2] | P388 ED50 [3] |
| --- | --- | --- | --- | --- | --- |
| CC1[C@@H]2CC=C3C4CCC5Cc6nc7c(nc6C[C@@]5(C)C4CC(=O)[C@]32CO[C@@]1(O)C(O)CC(C)(C)O)CC1CCC2C3=C[C@H]4O[C@@]5(O[C@@](C)(CO)C[C@@H]5O)C(C)[C@@]4(O)[C@]3(C)[C@@H](O)CC2[C@]1(C)C7 (some centres unmarked) [Cephalostatin 9] | confirmed active level | powerful inhibitors of various human tumor cell lines | very strong and selective activity | confirmed active level |  |
| C[C@@H]1[C@]2(O[C@H]3C=C4[C@@H]5CC[C@H]6Cc7nc8c(nc7C[C@]6(C)[C@H]5C[C@@H](O)[C@]4(C)[C@]31O)C[C@@H]1CC[C@H]3C4=CC[C@@H]5[C@H](C)[C@@]6(OC[C@]45C(=O)C[C@@H]3[C@@]1(C)C8)OC(C)(C)C[C@H]6O)O[C@](C)(CO)C[C@H]2O [cephalostatin 1] |  |  |  |  | 10^-7 to 10^-9 μg/mL |
